Data on eleven molecules can be found in ChEMBL document CHEMBL4265960, “Dithiocarbamates: Efficient metallo-β-lactamase inhibitors with good antibacterial activity when combined with meropenem” (Bioorg Med Chem Lett, 2018).

In general, IC50 refers to the concentration needed to halve the response being measured.

In brackets after ≈: the same amount, converted by molar mass. Activity calls are given as the source filed them. No cut-off for these calls is given here.

Data set [1] deals with Escherichia coli. In words: Inhibition of Escherichia coli IMP4 assessed as potentiation of meropenem-induced antibacterial activity by measuring meropenem MIC at 64 ug/ml after 16 to 18 hrs by broth microdilution method (reference value: 20 to 160 ug/ml).
In data set [2] the test system is Proteus mirabilis. In words: Inhibition of Proteus mirabilis NDM1 assessed as potentiation of meropenem-induced antibacterial activity by measuring meropenem MIC at 64 ug/ml after 16 to 18 hrs by broth microdilution method (reference value: 20 to 160 ug/ml). On the technique in general: Dilution methods test growth across graded concentrations, often in twofold steps.

Data set [3] deals with Beta-lactamase NDM-1 (Escherichia coli) (UniProt E5KIY2).
Description: Inhibition of Escherichia coli NDM1 assessed as potentiation of meropenem-induced antibacterial activity by measuring meropenem MIC at 64 ug/ml after 16 to 18 hrs by broth microdilution method (Rvb = 10 to 320 ug/ml)
For data set [4], the system named is Citrobacter freundii. In words: Inhibition of Citrobacter freundii NDM1 assessed as potentiation of meropenem-induced antibacterial activity by measuring meropenem MIC at 64 ug/ml after 16 to 18 hrs by broth microdilution method (reference value: 20 ug/ml).
Data set [5] concerns the target T1, Metallo-beta-lactamase NDM-4 (Escherichia coli) (UniProt H6WZS9).
T1 sequence (whole entry): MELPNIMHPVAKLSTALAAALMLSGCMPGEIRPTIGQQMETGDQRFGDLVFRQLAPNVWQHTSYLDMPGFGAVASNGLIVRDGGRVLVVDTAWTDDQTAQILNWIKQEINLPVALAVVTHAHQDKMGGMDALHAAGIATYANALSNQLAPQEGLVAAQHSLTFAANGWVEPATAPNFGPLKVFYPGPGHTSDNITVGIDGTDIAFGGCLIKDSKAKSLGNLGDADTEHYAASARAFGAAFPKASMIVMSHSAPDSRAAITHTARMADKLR
The data set can be described thus: Inhibition of Escherichia coli NDM4 assessed as potentiation of meropenem-induced antibacterial activity by measuring zone of inhibition at 10 uL after 16 to 18 hrs by disc diffusion method (reference value: 9.6 +/- 0.5 millimeter). For orientation: In agar diffusion tests the substance spreads into inoculated agar from a disc or well.

In data set [6] the test system is Escherichia coli. In words: Inhibition of Escherichia coli IMP4 assessed as potentiation of meropenem-induced antibacterial activity by measuring zone of inhibition at 10 uL after 16 to 18 hrs by disc diffusion method (reference value: 9.8 +/- 0.6 millimeter).
Data set [7] concerns the target Beta-lactamase (Klebsiella pneumoniae) (UniProt Q4LDF1).
Description: Inhibition of Klebsiella pneumoniae IMP4 assessed as potentiation of meropenem-induced antibacterial activity by measuring meropenem MIC at 64 ug/ml after 16 to 18 hrs by broth microdilution method (Rvb = 20 to 40 ug/ml)
The target in data set [8] is Metallo-beta-lactamase type 2 (Klebsiella pneumoniae) (UniProt C7C422).
Description: Inhibition of Klebsiella pneumoniae NDM1 assessed as potentiation of meropenem-induced antibacterial activity by measuring meropenem MIC at 64 ug/ml after 16 to 18 hrs by broth microdilution method (Rvb = 40 to 80 ug/ml)
The subject of the next data set is Erythrocyte. In words: Hemolytic activity against sheep RBC at 1.953 to 1000 ug/ml after 1 hr. The class given is ADME, cell-based, Ovis aries.
Data set [9] relates to HeLa. In words: Cytotoxicity against human HeLa cells at 32 ug/ml after 24 hrs by calcein-AM/propidium iodide staining based fluorescence microscopic analysis. The class given is cell-based.
Data set [10] relates to Proteus mirabilis. The data set can be described thus: Inhibition of Proteus mirabilis NDM1 assessed as potentiation of meropenem-induced antibacterial activity by measuring fold reduction in meropenem MIC at 64 ug/ml after 16 to 18 hrs by broth microdilution method relative to meropenem alone.
Data set [11] has as its system Escherichia coli. In words: Toxicity against Escherichia coli harboring NDM1 after 16 to 18 hrs by broth microdilution method. The class given is organism-based.
Data set [12] deals with Escherichia coli. In words: Toxicity against Escherichia coli harboring IMP4 assessed as reduction in bacterial growth after 16 to 18 hrs by broth microdilution method. Format: organism-based.
The subject of data set [13] is Escherichia coli. The data set can be described thus: Inhibition of Escherichia coli IMP4 assessed as potentiation of meropenem-induced bactericidal activity by measuring bacterial count at 8 times MIC incubated for 24 hrs followed by replating on agar plates and further incubated for 16 to 18 hrs measured for 24 hrs by time kill assay.
Data set [14] relates to HeLa. The data set can be described thus: Cytotoxicity against human HeLa cells after 24 hrs by CCK8 assay. Format: cell-based. For orientation: Tetrazolium assays rely on reduction of a dye to a coloured formazan, in cell work by metabolically active cells.
Data set [15] has as its system Escherichia coli. The data set can be described thus: Inhibition of Escherichia coli IMP4 assessed as potentiation of meropenem-induced bactericidal activity by measuring reduction in bacterial colonies at 4 to 8 times MIC incubated for 3 hrs followed by replating on agar plates and further incubated for 16 to 18 hrs measured for 24 hrs by time kill assay.
Data set [16] has as its target Beta-lactamase NDM-1 (Escherichia coli) (UniProt E5KIY2). The source holds these as a separate data set.
Description: Inhibition of Escherichia coli NDM1 assessed as potentiation of meropenem-induced bactericidal activity by measuring meropenem MBC after 20 to 24 hrs in presence of 50% blood
Data set [17] deals with Escherichia coli. In words: Inhibition of Escherichia coli IMP4 assessed as potentiation of meropenem-induced antibacterial activity by measuring bacterial growth at 64 ug/ml after 16 to 18 hrs by broth microdilution method (reference value: 93.43 +/- 2.12%). Set-up: scale not given: the % may be the effect or the level left.
In data set [18] the test system is Escherichia coli. In words: Inhibition of Escherichia coli IMP4 assessed as potentiation of meropenem-induced bactericidal activity by measuring reduction in bacterial colonies at 8 times MIC incubated up to 8 hrs followed by replating on agar plates and further incubated for 16 to 18 hrs measured for 24 hrs by time kill assay.
For data set [19], the system named is Escherichia coli. In words: Inhibition of Escherichia coli IMP4 assessed as potentiation of meropenem-induced antibacterial activity by measuring reduction in bacterial growth at 64 ug/ml after 16 to 18 hrs in presence of ZnCl2 by broth microdilution method.
The test system of data set [20] is Citrobacter freundii. In words: Inhibition of Citrobacter freundii NDM1 assessed as potentiation of meropenem-induced antibacterial activity by measuring fold reduction in meropenem MIC at 64 ug/ml after 16 to 18 hrs by broth microdilution method relative to meropenem alone.
The subject of data set [21] is Escherichia coli. The data set can be described thus: Inhibition of Escherichia coli IMP4 assessed as potentiation of meropenem-induced bactericidal activity by measuring bacterial count at 4 times MIC incubated for 24 hrs followed by replating on agar plates and further incubated for 16 to 18 hrs measured for 24 hrs by time kill assay.
Data set [22] concerns the target Beta-lactamase NDM-1 (Escherichia coli) (UniProt E5KIY2). The source holds these as a separate data set.
Description: Inhibition of Escherichia coli NDM1 assessed as potentiation of meropenem-induced bactericidal activity by measuring meropenem MBC after 20 to 24 hrs in presence of 50% serum
Data set [23] relates to Escherichia coli. The data set can be described thus: Inhibition of Escherichia coli IMP4 assessed as potentiation of meropenem-induced bactericidal activity by measuring bacterial count at 4 times MIC incubated for 8 hrs followed by replating on agar plates and further incubated for 16 to 18 hrs measured for 24 hrs by time kill assay.
In data set [24] the test system is Escherichia coli. In words: Inhibition of Escherichia coli IMP4 assessed as potentiation of meropenem-induced bactericidal activity by measuring reduction in bacterial colonies at 8 times MIC incubated up to 3 hrs followed by replating on agar plates and further incubated for 16 to 18 hrs measured for 24 hrs by time kill assay.

Turning to `CCCCCCCCN(CCCCCCCC)C(=S)S`, the MIC with Escherichia coli [1] is 1 to 8 µg/mL; with Proteus mirabilis [2], 2 to 4 µg/mL; in data set [3], 4 to 16 µg/mL (≈ 12.6 to 50.4 µM); in the data set with Citrobacter freundii [4], 4 µg/mL; in data set [7], under 1 µg/mL; in data set [8], 1 to 8 µg/mL (≈ 3.15 to 25.2 µM). In addition, the “inhibition zone (IZ)” value (in data set [5]; in the data set on Escherichia coli [6]) was “inactive” throughout.

With `CCCCCCCCCCCCCCNC(=S)S`, the MIC result (in the data set on Escherichia coli [1]; in the data set with Proteus mirabilis [2]; in data set [3]; with Citrobacter freundii [4]; in data set [7]; in [8]) was “inactive” throughout. Besides, the “inhibition zone (IZ)” value (in data set [5]; in the data set on Escherichia coli [6]) was “inactive” each time.

On to `S=C([S-])N1CCCC1.[Na+]`, for which the MIC in the data set on Escherichia coli [1] is under 16 µg/mL; in the data set on Proteus mirabilis [2], 2 to 8 µg/mL; in data set [3], 2 µg/mL; in the data set on Escherichia coli [11] it was over 128 µg/mL; in data set [7], under 0.0312 µg/mL; in data set [8], under 0.0312 µg/mL. Also, the Activity entry with Erythrocyte was “Non-Toxic”; in the data set on HeLa [9] it was “Non-Toxic”; in the data set on Escherichia coli [12] it was “Non-Toxic”; with Escherichia coli [13], 9 to 10 log10CFU/ml. Besides, the fold change (FC) with Proteus mirabilis [10] is under 320. Besides, the inhibition zone (IZ) in data set [5] is 22.1 mm; in the data set on Escherichia coli [6], 22.8 mm. Further, in the data set on HeLa [14], the IC50 worked out at 349 µg/mL.

For the molecule `S=C(S)N1CCOCC1`, the MIC was 2 to 16 µg/mL in the data set with Escherichia coli [1]; 16 µg/mL in the data set on Proteus mirabilis [2]; 8 µg/mL (≈ 49 µM) in data set [3]; 2 µg/mL in the data set with Citrobacter freundii [4]; 8 to 16 µg/mL (≈ 49 to 98 µM) in [7]; 4 to 16 µg/mL (≈ 24.5 to 98 µM) in [8].

`CCCCCCN(CCCCCC)C(=S)S`: the MIC with Escherichia coli [1] is 4 to 16 µg/mL; in the data set on Proteus mirabilis [2], 8 to 16 µg/mL; in data set [3], 8 µg/mL (≈ 30.6 µM); in the data set on Citrobacter freundii [4], 8 µg/mL; in data set [7], 16 µg/mL (≈ 61.2 µM); in [8] it was 8 to 16 µg/mL (≈ 30.6 to 61.2 µM). The “inhibition zone (IZ)” value (in [5]; in the data set with Escherichia coli [6]) was “inactive” each time.

Turning to `O=C(O)CN1CCN(CC(=O)O)CCN(CC(=O)O)CC1`, the inhibition zone (IZ) in data set [5] is 22.9 mm; in the data set with Escherichia coli [6] it was 20.3 mm. In addition, in the data set with Escherichia coli [15], the result was Active.

Consider `CCN(CC)C(=S)[S][Na]` [DITIOCARB SODIUM], for which the Activity result in the data set on Erythrocyte, with HeLa [9] and in the data set with Escherichia coli [12] was “Non-Toxic” each time. In the data set with Escherichia coli [11], this molecule yielded an MIC of over 128 µg/mL.

For the molecule `S=C([S-])N1CCCCC1.[Na+]`, the MBC in data set [16] was 1 µg/mL; in data set [22], under 0.0312 µg/mL. The MIC is under 16 µg/mL with Escherichia coli [1]; 4 to 16 µg/mL with Proteus mirabilis [2]; 0.25 µg/mL in data set [3]; over 128 µg/mL in the data set with Escherichia coli [11]; under 0.0312 µg/mL in data set [7]; under 0.0312 µg/mL in [8]. Also, the Activity was 3.55% in the data set on Escherichia coli [17]; “Non-Toxic” in the data set on Erythrocyte; “Non-Toxic” with HeLa [9]; “Non-Toxic” in the data set with Escherichia coli [12]; 1 to 2 log10CFU/ml in the data set on Escherichia coli [21]. In the data set with Escherichia coli [18], the result was Active. The fold change (FC) in the data set on Proteus mirabilis [10] and in the data set with Citrobacter freundii [20] was under 320 each time. The inhibition zone (IZ) came to 23.9 mm in data set [5] and 24.2 mm in the data set on Escherichia coli [6]. For the same molecule, the outcome with Escherichia coli [19] was inactive. This molecule also returned an IC50 with HeLa [14] of 634 µg/mL.

Take `S=C(S)N1CCN(C(=S)S)CC1`: the MIC is 4 to 16 µg/mL in the data set with Escherichia coli [1]; 4 to 8 µg/mL in the data set on Proteus mirabilis [2]; 8 to 16 µg/mL (≈ 33.6 to 67.1 µM) in data set [3]; 2 µg/mL in the data set with Citrobacter freundii [4]; 8 to 16 µg/mL (≈ 33.6 to 67.1 µM) in data set [7]; 4 to 16 µg/mL (≈ 16.8 to 67.1 µM) in data set [8]. Further, the “inhibition zone (IZ)” value (in [5]; with Escherichia coli [6]) was “inactive” each time.

Take `CCCCCCNC(=S)S`: the MIC was 2 to 16 µg/mL in the data set with Escherichia coli [1], 0.25 µg/mL in the data set with Proteus mirabilis [2], 16 µg/mL (≈ 90.2 µM) in data set [3] and 16 µg/mL (≈ 90.2 µM) in data set [7]. Further, the MIC entry (with Citrobacter freundii [4]; in data set [8]) was “inactive” in each case. The “inhibition zone (IZ)” value (in data set [5]; in the data set on Escherichia coli [6]) was “inactive” each time.

Take `CCN(CC)C(=S)[S-].[Na+]` [DITIOCARB SODIUM]: the MIC with Escherichia coli [1] was under 16 µg/mL; in the data set on Proteus mirabilis [2], 0.5 to 4 µg/mL; in data set [3] it was 1 to 16 µg/mL; in the data set on Citrobacter freundii [4], under 0.0312 µg/mL; in data set [7] it was under 2 µg/mL; in data set [8], under 2 µg/mL. In the data set on Escherichia coli [23], the Activity lay within 3 to 4 log10CFU/ml. Further, the values for the inhibition zone (IZ) (in data set [5]; in the data set with Escherichia coli [6]) were 18.9 mm and 17.2 mm, respectively. In addition, the IC50 in the data set on HeLa [14] is over 1280 µg/mL. In the data set with Escherichia coli [24], the outcome was Active.
